Measured values: patent US4661510A, “α-allenic-α-amino acids as enzyme inhibitors” (priority 1985, dated 1987)

Experiments:
[1] = tested on: rat brain glutamate decarboxylase; settings: Crystal et al 1977; cited from earlier work
[2] = molecular target: T1, bacterial tyrosine decarboxylase from Streptococcus faecallis (Enterococcus faecalis, UniProt Q838D6); assay: Time dependent inactivation of tyrosine decarboxylase; assay type: biochemical; settings: Streptococcus faecallis enzyme
T1 construct: purchased from Sigma Chemical Co. as crude extracts; purchased Sigma Chemical Co; host or cells: Streptococcus faecalis, crude extract
T1 sequence (Q838D6 1-620): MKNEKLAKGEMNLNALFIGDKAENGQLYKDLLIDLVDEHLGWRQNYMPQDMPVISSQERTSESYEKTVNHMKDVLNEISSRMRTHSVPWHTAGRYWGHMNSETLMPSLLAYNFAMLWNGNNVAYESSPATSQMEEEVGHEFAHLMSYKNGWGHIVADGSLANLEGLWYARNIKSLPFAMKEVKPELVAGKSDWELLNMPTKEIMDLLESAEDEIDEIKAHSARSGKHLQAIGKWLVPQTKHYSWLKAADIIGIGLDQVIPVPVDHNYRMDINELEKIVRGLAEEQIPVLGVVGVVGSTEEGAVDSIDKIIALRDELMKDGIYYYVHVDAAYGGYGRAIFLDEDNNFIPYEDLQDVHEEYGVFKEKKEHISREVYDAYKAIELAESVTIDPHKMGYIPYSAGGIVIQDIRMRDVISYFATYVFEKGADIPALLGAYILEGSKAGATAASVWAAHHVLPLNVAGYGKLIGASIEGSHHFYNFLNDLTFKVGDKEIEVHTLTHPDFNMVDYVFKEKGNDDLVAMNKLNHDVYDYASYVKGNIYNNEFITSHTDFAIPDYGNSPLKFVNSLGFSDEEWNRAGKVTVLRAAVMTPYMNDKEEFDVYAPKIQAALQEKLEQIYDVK
Text: (§1) Mammalian DOPA decarboxylase was isolated and purified from porcine kidney by the procedure of Borri-Voltatorni et al [Eur. J. Biochem., 93, 181 (1979)] with modifications as introduced by Rudd and Thanassi [Biochemistry, 20, 7469 (1981)]. Bacterial L-phenylalanine and L-tyrosine decarboxylases ex Streptococcus faecallis were purchased from Sigma Chemical Co. as crude extracts and studied without further purification.
(§2) The time dependent inactivation of bacterial aromatic amino acid decarboxylases with 200-1000 micromolar inhibitor, e.g. 2-amino-2-(4-hydroxybenzyl)-penta-3,4-dienoic acid or 2-amino-2-benzylpenta-3,4-dienoic acid, was monitored at pH 5.5 and 37° C. Residual activity of tyrosine decarboxylase ex Streptococcus faecallis was determined by measurement of p-tyramine production at pH 5.5 and 37° C. p-Tyramine was separated by HPLC and quantified by electrochemical oxidation at +0.7 volts.

[3] = molecular target: T2, phenylalanine decarboxylase from Streptococcus faecallis (Enterococcus faecalis, UniProt Q838D6); assay: Time dependent inactivation of phenylalanine decarboxylase; assay type: biochemical; settings: Streptococcus faecallis enzyme
T2 construct: L-phenylalanine substrate, phenylethylamine by GC
T2 sequence (Q838D6 1-620): T1 sequence (Q838D6 1-620)
Text: as §1, §2
Residual activity of L-phenylalanine decarboxylase ex Streptococcus faecallis with L-phenylalanine (2 mM) as substrate was meaasured by gas chromatographic analysis of phenylethylamine production. Direct injection of enzymatic reaction mixture (1-5 microliters) onto a standard glass column packed with 10% Apiezon L on Chromosorb 80/100 deactivated with 2% KOH allowed separation of aromatic amine from the reaction mixture. FID detection quantified the rate of product formation.

[4] = molecular target: T3, mammalian DOPA decarboxylase from porcine kidney (Sus scrofa, UniProt P80041); assay: Time dependent inactivation of DOPA decarboxylase; assay type: biochemical; settings: porcine kidney enzyme
T3 construct: isolated and purified from porcine kidney; from tissue; host or cells: porcine kidney
T3 sequence (P80041 1-486): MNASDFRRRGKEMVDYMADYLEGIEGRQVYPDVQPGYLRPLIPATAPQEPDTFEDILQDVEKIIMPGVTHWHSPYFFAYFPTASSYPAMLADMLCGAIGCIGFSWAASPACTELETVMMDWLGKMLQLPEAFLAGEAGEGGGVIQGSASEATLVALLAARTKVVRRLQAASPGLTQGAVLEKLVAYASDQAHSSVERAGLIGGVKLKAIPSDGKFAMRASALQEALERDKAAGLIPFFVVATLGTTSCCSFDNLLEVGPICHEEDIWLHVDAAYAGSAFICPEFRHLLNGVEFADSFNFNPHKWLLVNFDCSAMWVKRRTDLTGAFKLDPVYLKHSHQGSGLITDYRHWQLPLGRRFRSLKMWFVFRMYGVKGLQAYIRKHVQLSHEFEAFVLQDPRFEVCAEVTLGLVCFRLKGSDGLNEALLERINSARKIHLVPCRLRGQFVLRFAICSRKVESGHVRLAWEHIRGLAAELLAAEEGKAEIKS
Text: as §1
Time dependent inactivation of mammalian DOPA decarboxylase was monitored by incubation of enzyme with 4 to 100 molar equivalent excess of 2-amino-2-(3,4-dihydroxybenzyl)penta-3,4-dienoic acid at pH 6.8 and 37° C. At appropriate time intervals, aliquots of the mixture were withdrawn, diluted 30-fold into excess L-DOPA (2 mM) and residual DOPA decarboxylase activity determined.
DOPA decarboxylase activity was routinely measured by liquid chromatography and electrochemical detection of catecholamine products. DOPA decarboxylase (1-5 micrograms, 1-20 units) was incubated with L-DOPA (2000 micromolar, 150 microliters) and PLP (10 micromolar) in 0.1M phosphate at pH 6.8 and 37° C. After 1-10 minutes, the reaction was quenched with citric acid (2M, 25 microliters), diluted two-fold with distilled water and 10 microliter aliquots were analyzed by HPLC on a reverse phase Brownlee RP-18 column. Isocratic elution with pH 4.35 buffer [0.1M NaOAc ([…]), 0.1M citric acid (32% v/v) and methanol (15% v/v)] at a flow rate of 2.5 ml/min. afforded baseline resolution of dopamine (RT=2.8 min.) from L-DOPA (RT=1.9 min.).
Quantification of dopamine was accomplished by preoxidation of the catechol to the ortho quinone at +0.25 volts in the first analytical electrochemical cell, followed by the selective reduction of ortho quinone in the second analytical cell set at -0.25 volts. This configuration for the ESA electrochemical detector allowed highly sensitive and selective detection of catecholamines (less than 10 picomoles/injection).

[5] = molecular target: T4, ornithine decarboxylase (Homo sapiens, UniProt P11926); settings: Relyea and Rando 1975; cited from earlier work
T4 sequence (P11926 1-461): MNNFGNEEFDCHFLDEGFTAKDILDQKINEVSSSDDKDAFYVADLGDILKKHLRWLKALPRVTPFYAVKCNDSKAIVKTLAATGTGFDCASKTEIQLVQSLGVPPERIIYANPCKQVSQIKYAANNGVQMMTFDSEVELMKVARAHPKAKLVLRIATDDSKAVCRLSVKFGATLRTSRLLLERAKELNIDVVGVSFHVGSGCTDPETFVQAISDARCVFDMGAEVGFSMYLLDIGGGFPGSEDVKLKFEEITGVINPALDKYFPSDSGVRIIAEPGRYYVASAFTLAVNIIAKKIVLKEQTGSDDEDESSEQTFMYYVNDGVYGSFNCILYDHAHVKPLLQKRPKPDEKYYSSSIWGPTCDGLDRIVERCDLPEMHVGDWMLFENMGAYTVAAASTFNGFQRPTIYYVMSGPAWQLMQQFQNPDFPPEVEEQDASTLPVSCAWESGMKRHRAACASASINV

[6] = molecular target: T5, rat prostate ornithine decarboxylase (Rattus norvegicus, UniProt P09057); settings: Metcalf et al 1979; cited from earlier work
T5 construct: host or cells: rat prostate
T5 sequence (P09057 1-461): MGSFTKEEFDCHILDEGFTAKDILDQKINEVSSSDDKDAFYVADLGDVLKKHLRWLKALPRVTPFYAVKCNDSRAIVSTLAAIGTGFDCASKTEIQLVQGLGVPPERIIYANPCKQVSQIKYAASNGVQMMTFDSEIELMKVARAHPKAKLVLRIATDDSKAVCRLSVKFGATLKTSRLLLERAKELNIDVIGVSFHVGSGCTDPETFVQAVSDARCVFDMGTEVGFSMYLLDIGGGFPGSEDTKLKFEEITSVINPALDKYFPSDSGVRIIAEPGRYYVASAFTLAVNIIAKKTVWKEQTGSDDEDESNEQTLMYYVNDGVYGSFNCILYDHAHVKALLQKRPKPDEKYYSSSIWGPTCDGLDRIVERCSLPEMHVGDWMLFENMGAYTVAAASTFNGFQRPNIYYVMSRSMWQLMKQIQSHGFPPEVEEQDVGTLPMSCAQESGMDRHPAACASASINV

[7] = molecular target: T6, rat liver ornithine decarboxylase (Rattus norvegicus, UniProt P09057); settings: Metcalf et al 1979; cited from earlier work
T6 construct: host or cells: rat liver
T6 sequence (P09057 1-461): T5 sequence (P09057 1-461)

[8] = molecular target: T7, aromatic amino acid decarboxylase (Sus scrofa, UniProt P80041); settings: Maycock et al; cited from earlier work
T7 sequence (P80041 1-486): T3 sequence (P80041 1-486)

[9] = tested on: Male Sim:(S.D.)fBR rats; assay: In vivo potentiation of L-DOPA induced behaviors; parameters: species or system rat; settings: for Mean Behavior Score at 60 min.: score scale 0-6, before 200 mg/kg L-DOPA i.p.
Description: Male Sim:(S.D.)fBR rats weighing 180-335 g were used for these experiments. Groups of 5 rats were individually housed and received water, or various doses of either 2-amino-2-(3-hydroxybenzyl)penta-3,4-dienoic acid or 2-amino-2-(3,4-dihydroxybenzyl)penta-3,4-dienoic acid 30 l minutes before 200 mg/kg of L-DOPA, i.p. Beginning 15 minutes later, behavioral observations were made at 15 minutes intervals for 2 hours. Behavoir was scored as follows:
3=Alert with intermittent sniffing

[10] = tested on: mammalian glutamate decarboxylase; settings: Jung et al 1978; cited from earlier work
[11] = molecular target: bacterial glutamate decarboxylase (Escherichia coli, UniProt P69910); settings: Jung et al 1978; cited from earlier work
bacterial glutamate decarboxylase, sequence (P69910 whole entry): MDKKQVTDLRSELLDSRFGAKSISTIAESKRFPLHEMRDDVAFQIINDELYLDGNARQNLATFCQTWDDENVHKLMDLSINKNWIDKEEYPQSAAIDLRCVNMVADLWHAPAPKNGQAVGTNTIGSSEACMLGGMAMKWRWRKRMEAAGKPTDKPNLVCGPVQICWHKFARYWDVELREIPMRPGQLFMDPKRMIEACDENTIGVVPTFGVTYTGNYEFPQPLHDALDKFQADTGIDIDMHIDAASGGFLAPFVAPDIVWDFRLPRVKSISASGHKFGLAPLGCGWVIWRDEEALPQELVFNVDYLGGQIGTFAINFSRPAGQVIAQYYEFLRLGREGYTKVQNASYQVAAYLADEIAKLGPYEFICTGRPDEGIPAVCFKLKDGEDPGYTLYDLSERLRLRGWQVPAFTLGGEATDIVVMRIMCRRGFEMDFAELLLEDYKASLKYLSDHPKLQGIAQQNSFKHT

Row | Compound | irreversible inactivation of tyrosine decarboxylase [2] | irreversible inactivation of phenylalanine decarboxylase [3] | irreversible inactivation of DOPA decarboxylase [4] | also measured
1 | CC(N)(/C=C/C(=O)O)C(=O)O (stereo not drawn) [α-methyl-trans-dehydroglutamic acid] |  |  |  | inhibition of glutamate decarboxylase [1]: irreversibly inhibits
2 | C=C=CC(N)(Cc1ccc(O)cc1)C(=O)O (centres unmarked) [2-amino-2-(4-hydroxybenzyl)penta-3,4-dienoic acid] | irreversible inactivators | irreversible inactivators | irreversible inactivators | 
3 | C=C=CC(N)(Cc1ccccc1)C(=O)O (centres unmarked) [2-amino-2-benzylpenta-3,4-dienoic acid] | irreversible inactivators | irreversible inactivators | irreversible inactivators | 
4 | NCC=CC(N)C(=O)O (stereo not drawn) [β, γ-dehydroornithine] |  |  |  | inhibition of ornithine decarboxylase [5]: very potent competitive inhibitor
5 | C#CC(N)CCCN (single isomer, unassigned; (-)) [(-)-5-hexyne-1,4-diamine] |  |  |  | inhibition of ornithine decarboxylase [6]: potent time-dependent inhibitor; inhibition of ornithine decarboxylase [7]: potent time-dependent inhibitor
6 | C=CC(N)Cc1ccc(O)c(O)c1 (stereo not drawn) [α-vinyl-dopamine] |  |  |  | inactivation of aromatic amino acid decarboxylase [8]: slow-time dependent inactivation
7 | CC=C=CC(N)(Cc1cccc(O)c1)C(=O)O (centres unmarked) [2-amino-2-(3-hydroxybenzyl)hexa-3,4-dienoic acid] | irreversible inactivators | irreversible inactivators | irreversible inactivators | 
8 | C=C=CC(N)(Cc1ccc(O)c(O)c1)C(=O)O (centres unmarked) [2-amino-2-(3,4-dihydroxybenzyl)penta-3,4-dienoic acid] | irreversible inactivators | irreversible inactivators | irreversible inactivators | potentiation of the behaviors induced by L-DOPA ([9]; 30 mg/kg i.p. or s.c., 30 minutes before 200 mg/kg L-DOPA i.p.): active; Mean Behavior Score at 60 min. ([9]; 30 mg/kg i.p.): 4.0; Mean Behavior Score at 60 min. ([9]; 30 mg/kg s.c.): 4.0; potentiation of DOPA behaviors ([9]; 3 to 30 mg/kg i.p. or 30 to 150 mg/kg s.c.): potentiate DOPA behaviors
9 | CC=C=CC(N)(Cc1ccccc1)C(=O)O (centres unmarked) [2-amino-2-benzylhexa-3,4-dienoic acid] | irreversible inactivators | irreversible inactivators | irreversible inactivators | 
10 | C#C[C@H](N)CCC(=O)O [(R) 4-amino-hex-5-ynoic acid] |  |  |  | inhibition of glutamate decarboxylase [10]: inhibit; inhibition of glutamate decarboxylase [11]: inhibit
